Experiment: Stability of non-aqueous mixtures of 1-(nitrosooxy)-propan-2-ol and 2-(nitrosooxy)-propan-1-ol in 1,2-propanediol, GC analysis
Assay type: physicochemical
Protocol: Three different concentrations of 1-(nitrosooxy)-propan-2-ol and 2-(nitrosooxy)-propan-1-ol in 1,2-propanediol were prepared and stored in both a refrigerator (5° C.) and freezer (−20° C.). Aliquots of each solution were taken periodically and analysed by GC to determine the concentration of 1-(nitrosooxy)-propan-2-ol and 2-(nitrosooxy)-propan-1-ol.
The results of the GC analysis are shown in the table below (column: Rxi-5Sil MS, 20 m×0.18 mm, […]; carrier: He; Inlet: 250° C., split ratio 100:1; constant flow: 1.0 mL/min; oven temperature profile: 40° C. (3 min), 10° C./min, 80° C. (0 min), 30° C./min, 250° C. (3 min); FID: 300° C., H2 flow 30 mL/min, air flow 400 mL/min, make-up flow (N2) 25 mL/min; internal standard: 1,1,1,3,5,5,5-heptamethyl trisiloxane): […]

[1] = Freezer (−20° C.), 10 days, Low conc. sample in 1,2-propanediol
[2] = Freezer (−20° C.), 10 days, Medium conc. sample in 1,2-propanediol
[3] = Freezer (−20° C.), 14 days, High conc. sample in 1,2-propanediol
[4] = Freezer (−20° C.), 27 days, Low conc. sample in 1,2-propanediol
[5] = Freezer (−20° C.), 27 days, Medium conc. sample in 1,2-propanediol
[6] = Freezer (−20° C.), 28 days, High conc. sample in 1,2-propanediol
[7] = Freezer (−20° C.), 56 days, High conc. sample in 1,2-propanediol
[8] = Freezer (−20° C.), 64 days, Low conc. sample in 1,2-propanediol
[9] = Freezer (−20° C.), 64 days, Medium conc. sample in 1,2-propanediol
[10] = Freezer (−20° C.), 84 days, High conc. sample in 1,2-propanediol
[11] = Freezer (−20° C.), 84 days, Low conc. sample in 1,2-propanediol
[12] = Freezer (−20° C.), 84 days, Medium conc. sample in 1,2-propanediol
[13] = Freezer (−20° C.), Start, High conc. sample in 1,2-propanediol
[14] = Freezer (−20° C.), Start, Low conc. sample in 1,2-propanediol
[15] = Freezer (−20° C.), Start, Medium conc. sample in 1,2-propanediol
[16] = Refrigerator (5° C.), 10 days, Low conc. sample in 1,2-propanediol
[17] = Refrigerator (5° C.), 10 days, Medium conc. sample in 1,2-propanediol
[18] = Refrigerator (5° C.), 14 days, High conc. sample in 1,2-propanediol
[19] = Refrigerator (5° C.), 27 days, Low conc. sample in 1,2-propanediol
[20] = Refrigerator (5° C.), 27 days, Medium conc. sample in 1,2-propanediol
[21] = Refrigerator (5° C.), 28 days, High conc. sample in 1,2-propanediol
[22] = Refrigerator (5° C.), 56 days, High conc. sample in 1,2-propanediol
[23] = Refrigerator (5° C.), 64 days, Low conc. sample in 1,2-propanediol
[24] = Refrigerator (5° C.), 64 days, Medium conc. sample in 1,2-propanediol
[25] = Refrigerator (5° C.), 84 days, High conc. sample in 1,2-propanediol
[26] = Refrigerator (5° C.), 84 days, Low conc. sample in 1,2-propanediol
[27] = Refrigerator (5° C.), 84 days, Medium conc. sample in 1,2-propanediol
[28] = Refrigerator (5° C.), Start, High conc. sample in 1,2-propanediol
[29] = Refrigerator (5° C.), Start, Low conc. sample in 1,2-propanediol
[30] = Refrigerator (5° C.), Start, Medium conc. sample in 1,2-propanediol

| Structure (SMILES) | Concentration (% w/w) [1] [% w/w] | Concentration (% w/w) [2] [% w/w] | Concentration (% w/w) [3] [% w/w] | Concentration (% w/w) [4] [% w/w] | Concentration (% w/w) [5] [% w/w] | Concentration (% w/w) [6] [% w/w] | Concentration (% w/w) [7] [% w/w] | Concentration (% w/w) [8] [% w/w] | Concentration (% w/w) [9] [% w/w] | Concentration (% w/w) [10] [% w/w] | Concentration (% w/w) [11] [% w/w] | Concentration (% w/w) [12] [% w/w] | Concentration (% w/w) [13] [% w/w] | Concentration (% w/w) [14] [% w/w] | Concentration (% w/w) [15] [% w/w] | Concentration (% w/w) [16] [% w/w] | Concentration (% w/w) [17] [% w/w] | Concentration (% w/w) [18] [% w/w] | Concentration (% w/w) [19] [% w/w] | Concentration (% w/w) [20] [% w/w] | further results |
| --- | --- | --- | --- | --- | --- | --- | --- | --- | --- | --- | --- | --- | --- | --- | --- | --- | --- | --- | --- | --- | --- |
| CC(O)CON=O (stereo not drawn) [1-Nitrite, 1-(nitrosooxy)-propan-2-ol] | 0.08 | 0.81 | 3.76 | 0.07 | 0.74 | 3.72 | 3.55 | 0.07 | 0.74 | 3.50 | 0.08 | 0.78 | 3.75 | 0.08 | 0.81 | 0.08 | 0.86 | 3.72 | 0.09 | 0.81 | Concentration (% w/w) [21]: 3.67 % w/w; Concentration (% w/w) [22]: 3.47 % w/w; Concentration (% w/w) [23]: 0.07 % w/w; Concentration (% w/w) [24]: 0.73 % w/w; Concentration (% w/w) [25]: 3.33 % w/w; Concentration (% w/w) [26]: 0.07 % w/w; Concentration (% w/w) [27]: 0.77 % w/w; Concentration (% w/w) [28]: 3.75 % w/w; Concentration (% w/w) [29]: 0.08 % w/w; Concentration (% w/w) [30]: 0.81 % w/w |
| CC(CO)ON=O (stereo not drawn) [2-Nitrite, 2-(nitrosooxy)-propan-1-ol] | 0.06 | 0.63 | 2.89 | 0.06 | 0.57 | 2.93 | 2.74 | 0.06 | 0.58 | 2.71 | 0.06 | 0.62 | 2.94 | 0.06 | 0.61 | 0.06 | 0.67 | 2.91 | 0.07 | 0.63 | Concentration (% w/w) [21]: 2.90 % w/w; Concentration (% w/w) [22]: 2.69 % w/w; Concentration (% w/w) [23]: 0.06 % w/w; Concentration (% w/w) [24]: 0.57 % w/w; Concentration (% w/w) [25]: 2.59 % w/w; Concentration (% w/w) [26]: 0.06 % w/w; Concentration (% w/w) [27]: 0.60 % w/w; Concentration (% w/w) [28]: 2.94 % w/w; Concentration (% w/w) [29]: 0.06 % w/w; Concentration (% w/w) [30]: 0.61 % w/w |

— patent publication US20230225984A1, “MONO- AND BIS-NITROSYLATED ALKYL POLYOLS FOR THERAPEUTIC USE” (priority 2020, published 2023)
